Reference: US6737383B1, “Herbicidal oxadiazolidines” (priority 1999, dated 2004)

Legend:
giant foxtail = experiment: Test B pre/postemergence giant foxtail; format: in vivo, Setaria faberii
In short: (§1)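 Response is a visual 0-to-10 score relative to untreated plants, where 0 means no effect and 10 means complete control, taken twelve to sixteen days after application. Treatments went onto soil at planting and onto foliage of 1- to 4-leaf plants, using a surfactant-containing non-phytotoxic solvent.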

rape = experiment: Test B pre/postemergence rape; format: in vivo, Brassica napus
In short: as §1

sugar beet = experiment: Test B pre/postemergence sugar beet; format: in vivo, Beta vulgaris
In short: as §1

bedstraw = experiment: Test B pre/postemergence bedstraw; format: in vivo, Galium aparine
In short: as §1

velvetleaf = experiment: Test B pre/postemergence velvetleaf; format: in vivo, Abutilon theophrasti
In short: as §1

blackgrass = experiment: Test B pre/postemergence blackgrass; format: in vivo, Alopecurus myosuroides
In short: as §1

pigweed = experiment: Test B pre/postemergence pigweed; format: in vivo, Amaranthus retroflexus
In short: as §1

morningglory = experiment: Test B pre/postemergence morningglory; format: in vivo, Ipomoea hederacea
In short: as §1

surinam grass = experiment: Test B pre/postemergence surinam grass; format: in vivo, Brachiaria decumbens
In short: as §1

purple nutsedge = experiment: Test B pre/postemergence purple nutsedge; format: in vivo, Cyperus rotundus
In short: as §1

corn = experiment: Test B pre/postemergence corn; format: in vivo, Zea mays
In short: as §1

cocklebur = experiment: Test B pre/postemergence cocklebur; format: in vivo, Xanthium strumarium
In short: as §1

[1] = Postemergence, Rate 125 g/ha, scale of 0 to 10 where 0 is no effect and 10 is complete control
[2] = Preemergence, Rate 62 g/ha, scale 0 to 10 (0 no effect, 10 complete control)
[3] = Preemergence, Rate 125 g/ha, 0 is no effect, 10 is complete control
[4] = Preemergence, Rate 250 g/ha, scale 0 to 10, 0 is no effect, 10 is complete control
[5] = Preemergence, Rate 500 g/ha, scale 0 to 10 (0 no effect, 10 complete control)
[6] = Rate 62 g/ha, Postemergence, scale of 0 to 10 where 0 is no effect and 10 is complete control
[7] = Rate 250 g/ha, Postemergence, scale 0 to 10, 0 is no effect, 10 is complete control
[8] = Rate 500 g/ha, Postemergence, scale 0 to 10

CCCn1c(=O)on(C(=O)N(c2ccc(F)cc2F)C(C)C)c1=O [Compound 130]
7: Giant foxtail plant response rating (giant foxtail; [2]) | Sugarbeets plant response rating (sugar beet; [2]) | Plant response rating, Blackgrass (blackgrass; [7]) | Plant response rating, B. signalgrass (surinam grass; [7])
1: B. signalgrass plant response rating (surinam grass; [6])
4: Rape plant response rating (rape; [2]) | Sugarbeets plant response rating (sugar beet; [8]) | Morningglory plant response rating (morningglory; [5])
2: Rape plant response rating (rape; [1]) | Rape plant response rating (rape; [8]) | Plant response rating, Sugarbeets (sugar beet; [7]) | Bedstraw plant response rating (bedstraw; [4]) | Morningglory plant response rating (morningglory; [1]) | Morningglory plant response rating (morningglory; [6]) | Plant response rating, Morningglory (morningglory; [7]) | B. signalgrass plant response rating (surinam grass; [1]) | Plant response rating, Corn (corn; [7])
6: Plant response rating, Bedstraw (bedstraw; [7]) | Redroot pigweed plant response rating (pigweed; [2]) | Redroot pigweed plant response rating (pigweed; [8]) | B. signalgrass plant response rating (surinam grass; [2]) | Corn plant response rating (corn; [4]) | Corn plant response rating (corn; [5])
9: Giant foxtail plant response rating (giant foxtail; [1]) | Giant foxtail plant response rating (0 to 10 scale) (giant foxtail; [3]) | Plant response rating, Giant foxtail (giant foxtail; [7]) | Giant foxtail plant response rating (giant foxtail; [8]) | Rape plant response rating (0 to 10 scale) (rape; [3]) | Sugarbeets plant response rating (0 to 10 scale) (sugar beet; [3]) | Blackgrass plant response rating (0 to 10 scale) (blackgrass; [3]) | Blackgrass plant response rating (blackgrass; [4]) | B. signalgrass plant response rating (0 to 10 scale) (surinam grass; [3]) | B. signalgrass plant response rating (surinam grass; [4]) | B. signalgrass plant response rating (surinam grass; [5])
10: Giant foxtail plant response rating (giant foxtail; [4]) | Giant foxtail plant response rating (giant foxtail; [5]) | Rape plant response rating (rape; [4]) | Rape plant response rating (rape; [5]) | Sugarbeets plant response rating (sugar beet; [4]) | Sugarbeets plant response rating (sugar beet; [5]) | Bedstraw plant response rating (bedstraw; [5]) | Velvetleaf plant response rating (velvetleaf; [5]) | Blackgrass plant response rating (blackgrass; [5]) | Redroot pigweed plant response rating (0 to 10 scale) (pigweed; [3]) | Redroot pigweed plant response rating (pigweed; [4]) | Redroot pigweed plant response rating (pigweed; [5])
8: Giant foxtail plant response rating (giant foxtail; [6]) | Bedstraw plant response rating (bedstraw; Rate 500 g/ha, Postemergence, scale 0 to 10, 0 no effect, 10 complete control) | Velvetleaf plant response rating (0 to 10 scale) (velvetleaf; [3]) | Velvetleaf plant response rating (velvetleaf; [4]) | Blackgrass plant response rating (blackgrass; [8]) | B. signalgrass plant response rating (surinam grass; Rate 500 g/ha, Postemergence, scale of 0 to 10 where 0 is no effect and 10 is complete control)
5: Velvetleaf plant response rating (velvetleaf; [2]) | Plant response rating, Velvetleaf (velvetleaf; [7]) | Velvetleaf plant response rating (velvetleaf; [8]) | Blackgrass plant response rating (blackgrass; [1]) | Blackgrass plant response rating (blackgrass; [2])
3: Velvetleaf plant response rating (velvetleaf; [1]) | Blackgrass plant response rating (blackgrass; [6]) | Redroot pigweed plant response rating (pigweed; [1]) | Plant response rating, Redroot pigweed (pigweed; [7]) | Morningglory plant response rating (morningglory; [4]) | Morningglory plant response rating (morningglory; [8]) | Nutsedge plant response rating (purple nutsedge; [5]) | Corn plant response rating (corn; [2]) | Corn plant response rating (0 to 10 scale) (corn; [3]) | Corn plant response rating (corn; [8]) | Cocklebur plant response rating (cocklebur; [8])
0: Rape plant response rating (rape; [6]) | Sugarbeets plant response rating (sugar beet; [1]) | Sugarbeets plant response rating (sugar beet; [6]) | Bedstraw plant response rating (bedstraw; [2]) | Bedstraw plant response rating (0 to 10 scale) (bedstraw; [3]) | Bedstraw plant response rating (bedstraw; [6]) | Velvetleaf plant response rating (velvetleaf; [6]) | Redroot pigweed plant response rating (pigweed; [6]) | Morningglory plant response rating (morningglory; [2]) | Morningglory plant response rating (0 to 10 scale) (morningglory; [3]) | Nutsedge plant response rating (purple nutsedge; [1]) | Nutsedge plant response rating (purple nutsedge; [2]) | Nutsedge plant response rating (0 to 10 scale) (purple nutsedge; [3]) | Nutsedge plant response rating (purple nutsedge; [4]) | Nutsedge plant response rating (purple nutsedge; [6]) | Plant response rating, Nutsedge (purple nutsedge; [7]) | Nutsedge plant response rating (purple nutsedge; [8]) | Corn plant response rating (corn; [1]) | Corn plant response rating (corn; [6]) | Cocklebur plant response rating (cocklebur; [1]) | Cocklebur plant response rating (cocklebur; [2]) | Cocklebur plant response rating (0 to 10 scale) (cocklebur; [3]) | Cocklebur plant response rating (cocklebur; [4]) | Cocklebur plant response rating (cocklebur; [5]) | Cocklebur plant response rating (cocklebur; [6]) | Plant response rating, Cocklebur (cocklebur; [7])
